Values joined by “and” are separate entries in the source; they are usually repeats but may differ in a detail not shown here. Equal entries are not always repeated. “Also recorded” adds a separate entry of the source.
Key:
[1] = Plasma pharmacokinetics after single ip injection (Ru by ICP‐MS); assay type: in vivo
Experimental: Blood was collected from submandibular vein using a heparin coated glass capillary into heparinized blood collection tubes on ice at time intervals of 1, 2, 6, 12, 24, 48, and 72 hours post injection. Plasma was harvested by centrifuging blood samples at 2800 rpm for 15 minutes at 4°C and stored frozen at − 80°C until analysis. Similarly, kidney, liver, and tumor were harvested after final time point, weighed, and stored into glass vials. One mL of deionized water was added to each tissue sample, subjected to ultrasonic homogenization at 15 W power for 1 minute, followed by lyophilization.
Plasma and tissue concentrations of Ru and Au were measured using inductively coupled plasma–mass spectrometry (ICP‐MS). Plasma (10 μL) or tissue samples were transferred into glass vials, and 1 mL of a 75:25 mixture of nitric acid (16 N) and hydrochloric acid (12 N) was added to each vial. The mixture was then heated at 90°C for 5 hours. After cooling to room temperature, the samples were centrifuged to remove debris if any. All samples were then mixed with 40 ppb of indium internal standard and analyzed using a Thermo Scientific XSERIES 2 ICP‐MS coupled with ESI PC3 Peltier cooled spray chamber, SC‐FAST injection loop, and SC‐4 autosampler. All the elements were measured using He/H2 collision‐reaction mode.
Pharmacokinetic parameters were obtained from the plasma concentration–time profiles by noncompartmental analysis using Phoenix WinNonlin 6.4 version 6.4 (Pharsight Corporation, Mountain View, CA). The pharmacokinetic parameters quantified were the maximum plasma drug concentration (Cmax), the time to reach Cmax (Tmax), the area under the plasma concentration–time curve from 0 hour to last measurable concentration (AUClast), elimination rate constant (ke), plasma half‐life (t1/2), apparent total clearance of the drug from plasma (Cl/F), and apparent volume of distribution (Vd/F). Concentrations of ruthenium and gold in liver, kidney, and tumors were also determined.

[2] = Histopathology of organs and tissues after the trial; assay type: in vivo, NOD.CB17‐Prkdc scid/J mice; parameters: key to Histopathological finding: Lungs / Histopathological finding: Thymus / Histopathological finding: Kidneys / Histopathological finding: Gallbladder / Histopathological finding: Stomach / Histopathological finding: Cecum / Histopathological finding: Colon / Histopathological finding: Mesenteric lymph node / Histopathological finding: Salivary glands / Histopathological finding: Submandibular lymph node / Histopathological finding: Uterus / Histopathological finding: Cervix / Histopathological finding: Vagina / Histopathological finding: Testes/epididymis / Histopathological finding: Prostate / Histopathological finding: Seminal vesicles / Histopathological finding: Urinary bladder / Histopathological finding: Adrenals / Histopathological finding: Ovaries / Histopathological finding: Oviducts / Histopathological finding: Trachea / Histopathological finding: Esophagus / Histopathological finding: Thyroid / Histopathological finding: Parathyroid / Histopathological finding: Mammary glands / Histopathological finding: Bones (femur, tibia, sternum, vertebrae) / Histopathological finding: Stifle joint / Histopathological finding: Skeletral muscles (hind limb, spine) / Histopathological finding: Nerves (hind limb, spine) / Histopathological finding: Spinal cord / Histopathological finding: Oral cavity / Histopathological finding: Teeth / Histopathological finding: Nasal cavity / Histopathological finding: Eyes / Histopathological finding: Harderian gland / Histopathological finding: Bones (skull) / Histopathological finding: Pituitary / Histopathological finding: Brain / Histopathological finding: Ears / Histopathological finding: Heart: N: Normal
Source text: At the end of the intervention trial, female and male NOD.CB17‐Prkdc scid/J mice bearing subcutaneous Caki‐1 tumors were euthanized, blood was collected by intracardiac puncture and the carcasses were perfused with 4% PFA. Lung, kidney, heart, spleen, lymphatic tissue were collected, mounted in paraffin, sectioned and stained by Hemotoxilyn & Eosin. Samples were imaged at 20× under light microscope for analysis.

Substance: [Cl2(p‐cymene)Ru(μ‐dppm)Au(IMes)]ClO4 [RANCE‐1]
- Time to reach steady state ([1]; 10 mg/kg ip): 203.8 ± 93.4 h
- AUC0‐72h ([1]; 10 mg/kg single ip, plasma): 792.9 ± 270.3 µg·h/mL
- Cl/F ([1]; 10 mg/kg single ip, plasma): 0.1667 ± 0.0525 mL/min/kg
- Cmax ([1]; 10 mg/kg single ip, plasma): 22600 ± 2580 ng/mL
- Vd/F ([1]; 10 mg/kg single ip, plasma): 0.6121 ± 0.429 L/kg
- t1/2 ([1]; 10 mg/kg single ip, plasma): 40.8 h and 40 h and 40.77 ± 18.67 h
- Tmax ([1]; 10 mg/kg single ip, plasma Ru): 10.00 ± 3.46 h
- Cminss ([1]; predicted, based on a dose of 10 mg/kg every 72 h): 7170 ± 3910 ng/mL
- Histological changes in liver, spleen, or kidney tissue ([2]; H&E, end of the 21 day efficacy trial): does not induce histological changes
- Histopathological finding: Adrenals ([2]; end of 21 day trial): N
- Histopathological finding: Bone marrow (femur, tibia, sternum, vertebrae) ([2]; end of 21 day trial): Moderate diffuse granulocytic hyperplasia; Moderate diffused Erythroid hypoplasia.
- Histopathological finding: Bones (femur, tibia, sternum, vertebrae) ([2]; end of 21 day trial): N
- Histopathological finding: Bones (skull) ([2]; end of 21 day trial): N
- Histopathological finding: Brain ([2]; end of 21 day trial): N
- Histopathological finding: Cecum ([2]; end of 21 day trial): N
- Histopathological finding: Cervix ([2]; end of 21 day trial): N
- Histopathological finding: Colon ([2]; end of 21 day trial): N
- Histopathological finding: Duodenum, jejunum, ileum ([2]; end of 21 day trial): Mild peritonitis and serositis, neutrophilic and histiocytic, multifocal.
- Histopathological finding: Ears ([2]; end of 21 day trial): N
- Histopathological finding: Esophagus ([2]; end of 21 day trial): N
- Histopathological finding: Eyes ([2]; end of 21 day trial): N
- Histopathological finding: Gallbladder ([2]; end of 21 day trial): N
- Histopathological finding: Harderian gland ([2]; end of 21 day trial): N
- Histopathological finding: Heart ([2]; end of 21 day trial): N
- Histopathological finding: Kidneys ([2]; end of 21 day trial): N
- Histopathological finding: Liver ([2]; end of 21 day trial): Minimal extramedullary hematopoiesis. Minimal hepatocyte hypertrophy. Mild vacuolar change (microvesicular)
- Histopathological finding: Lungs ([2]; end of 21 day trial): N
- Histopathological finding: Mammary glands ([2]; end of 21 day trial): N
- Histopathological finding: Mesenteric lymph node ([2]; end of 21 day trial): N
- Histopathological finding: Nasal cavity ([2]; end of 21 day trial): N
- Histopathological finding: Nerves (hind limb, spine) ([2]; end of 21 day trial): N
- Histopathological finding: Oral cavity ([2]; end of 21 day trial): N
- Histopathological finding: Ovaries ([2]; end of 21 day trial): N
- Histopathological finding: Oviducts ([2]; end of 21 day trial): N
- Histopathological finding: Pancreas ([2]; end of 21 day trial): Minimal peritonitis, neutrophilic and histiocytic, multifocal
- Histopathological finding: Parathyroid ([2]; end of 21 day trial): N
- Histopathological finding: Pituitary ([2]; end of 21 day trial): N
- Histopathological finding: Prostate ([2]; end of 21 day trial): N
- Histopathological finding: Salivary glands ([2]; end of 21 day trial): N
- Histopathological finding: Seminal vesicles ([2]; end of 21 day trial): N
- Histopathological finding: Skeletral muscles (hind limb, spine) ([2]; end of 21 day trial): N
- Histopathological finding: Spinal cord ([2]; end of 21 day trial): N
- Histopathological finding: Spleen ([2]; end of 21 day trial): Mild increase in extramedullary hematopoiesis with granulocyte hyperplasia.
- Histopathological finding: Stifle joint ([2]; end of 21 day trial): N
- Histopathological finding: Stomach ([2]; end of 21 day trial): N
- Histopathological finding: Submandibular lymph node ([2]; end of 21 day trial): N
- Histopathological finding: Teeth ([2]; end of 21 day trial): N
- Histopathological finding: Testes/epididymis ([2]; end of 21 day trial): N
- Histopathological finding: Thymus ([2]; end of 21 day trial): N
- Histopathological finding: Thyroid ([2]; end of 21 day trial): N
- Histopathological finding: Trachea ([2]; end of 21 day trial): N
- Histopathological finding: Urinary bladder ([2]; end of 21 day trial): N
- Histopathological finding: Uterus ([2]; end of 21 day trial): N
- Histopathological finding: Vagina ([2]; end of 21 day trial): N
- Adverse effects / pathological complications on histological evaluation ([2]; forty‐seven organ and tissue types, after 21 days of treatment): no signs of pathological complications; also recorded: no significant adverse effects
